How the values were obtained:
[1] = test system: HCC-15 (Squamous Cell Lung Carcinoma); test: combination Emax (second highest fraction inhibited in the dose matrix, 72 h); higher = more inhibition; extreme values may be limits of the assay
How it was run: (§1)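 Cell lines in DMEM/F12 or RPMI with 10% FBS were plated in 1536-well plates, held 24 hours at 37°C, 5% CO2, then given two-drug dose matrices for 72 hours (DMSO typically 0.2%). Viability was read by CellTiter-Glo 2.0 luminescence and scaled as inhibition from 0 (vehicle wells) to 1 (blank wells). Combination Emax is the second-highest inhibition in the matrix; Bliss excess is observed combination effect minus expected EA + EB − EA·EB, EA and EB being single-agent effects.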

[2] = test system: UMC-11 (Other Solid Carcinomas); test: as above
How it was run: as §1

[3] = test system: CAL-51 (Breast Carcinoma); test: as above
How it was run: as §1

[4] = test system: KARPAS-231 (B-Cell Non-Hodgkin's Lymphoma); test: as above
How it was run: as §1

[5] = test system: NCI-H747 (Colorectal Carcinoma); test: as above
How it was run: as §1

[6] = test system: KYSE-410 (Esophageal Squamous Cell Carcinoma); test: as above
How it was run: as §1

[7] = test system: OVCAR-8 (Ovarian Carcinoma); test: as above
How it was run: as §1

[8] = test system: SW626 (Colorectal Carcinoma); test: as above
How it was run: as §1

[9] = test system: MHH-PREB-1 (B-Cell Non-Hodgkin's Lymphoma); test: as above
How it was run: as §1

COLO-829 (Melanoma) [10] = test: as above
How it was run: as §1

[11] = test system: 639-V (Bladder Carcinoma); test: as above
How it was run: as §1

[12] = test system: TE-4 (Esophageal Squamous Cell Carcinoma); test: as above
How it was run: as §1

[13] = test system: LB771-HNC (Head and Neck Carcinoma); test: as above
How it was run: as §1

[14] = test system: HCC-15 (Squamous Cell Lung Carcinoma); test: Bliss excess, mean over the matrix (fraction); higher = more synergy
How it was run: as §1

[15] = test system: UMC-11 (Other Solid Carcinomas); test: as above
How it was run: as §1

[16] = test system: CAL-51 (Breast Carcinoma); test: as above
How it was run: as §1

[17] = test system: KARPAS-231 (B-Cell Non-Hodgkin's Lymphoma); test: as above
How it was run: as §1

[18] = test system: NCI-H747 (Colorectal Carcinoma); test: as above
How it was run: as §1

[19] = test system: KYSE-410 (Esophageal Squamous Cell Carcinoma); test: as above
How it was run: as §1

[20] = test system: OVCAR-8 (Ovarian Carcinoma); test: as above
How it was run: as §1

[21] = test system: SW626 (Colorectal Carcinoma); test: as above
How it was run: as §1

[22] = test system: MHH-PREB-1 (B-Cell Non-Hodgkin's Lymphoma); test: as above
How it was run: as §1

COLO-829 (Melanoma) [23] = test: as above
How it was run: as §1

[24] = test system: 639-V (Bladder Carcinoma); test: as above
How it was run: as §1

[25] = test system: TE-4 (Esophageal Squamous Cell Carcinoma); test: as above
How it was run: as §1

[26] = test system: LB771-HNC (Head and Neck Carcinoma); test: as above
How it was run: as §1
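Throughout, for Bliss excess, mean over the matrix: after 72 h of two-drug dosing.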

| SMILES | combination Emax [1] | combination Emax [2] | combination Emax [3] | combination Emax [4] | combination Emax [5] | combination Emax [6] | combination Emax [7] | combination Emax [8] | combination Emax [9] | combination Emax (COLO-829 (Melanoma) [10]) | combination Emax [11] | combination Emax [12] | combination Emax [13] | Bliss excess [14] | Bliss excess [15] | Bliss excess [16] | Bliss excess [17] | Bliss excess [18] | Bliss excess [19] | Bliss excess [20] | Bliss excess [21] | Bliss excess [22] | Bliss excess (COLO-829 (Melanoma) [23]) | Bliss excess [24] | Bliss excess [25] | Bliss excess [26] |
| --- | --- | --- | --- | --- | --- | --- | --- | --- | --- | --- | --- | --- | --- | --- | --- | --- | --- | --- | --- | --- | --- | --- | --- | --- | --- | --- |
| C[C@@H](c1ccc2nccn2c1)n1nnc2ncc(-c3cnn(C)c3)nc21 [Savolitinib] + CN(CC[C@H](CSC1=CC=CC=C1)NC2=C(C=C(C=C2)S(=O)(=O)NC(=O)C3=CC=C(C=C3)N4CCC(CC4)[C@H](C5=CC=CC=C5C6=CC=C(C=C6)Cl)O)S(=O)(=O)C(F)(F)F)CCO [AZD4320] (first compound max 1 µM, 7x7, partner max 1 µM) | 0.916 | 0.401 | 0.207 | 0.907 | 0.208 | 0.174 | 0.0738 | 0.582 | 0.139 | 0.278 | 0.172 | 0.145 | 0.154 | -0.0203 | 0.0211 | -0.0375 | -0.0299 | -0.0808 | -0.0588 | -0.0373 | -0.108 | -0.0481 | -0.0397 | -0.0957 | -0.0244 | -0.042 |
| COc1nnc2ccc(N3CCC(c4ccc(OCCN5CCN(C)C(=O)[C@H]5C)cc4)CC3)nn12 [AZD5153] + CN(CC[C@H](CSC1=CC=CC=C1)NC2=C(C=C(C=C2)S(=O)(=O)NC(=O)C3=CC=C(C=C3)N4CCC(CC4)[C@H](C5=CC=CC=C5C6=CC=C(C=C6)Cl)O)S(=O)(=O)C(F)(F)F)CCO [AZD4320] (first compound max 1 µM, 7x7, partner max 1 µM) | 0.994 | 0.848 | 0.843 | 1 | 0.728 | 0.259 | 0.733 | 0.777 | 0.47 | 0.143 | 0.606 | 0.336 | 0.524 | -0.0023 | 0.0086 | 0.0267 | -0.159 | -0.0055 | 0.0046 | 0.0081 | 0.0477 | 0.0343 | -0.0466 | 0.034 | 0.0449 | 0.0273 |
| CC(=O)c1c(C)c2cnc(Nc3ccc(N4CCNCC4)cn3)nc2n(C2CCCC2)c1=O [Palbociclib] + CN(CC[C@H](CSC1=CC=CC=C1)NC2=C(C=C(C=C2)S(=O)(=O)NC(=O)C3=CC=C(C=C3)N4CCC(CC4)[C@H](C5=CC=CC=C5C6=CC=C(C=C6)Cl)O)S(=O)(=O)C(F)(F)F)CCO [AZD4320] (first compound max 10 µM, 7x7, partner max 1 µM) | 0.982 | 0.631 | 0.479 | 0.98 | 0.555 | 0.41 | 0.173 | 0.662 | 0.492 | 0.33 | 0.198 | 0.341 | 0.206 | -0.0553 | 0.0057 | -0.123 | -0.0645 | -0.0425 | -0.0667 | -0.0261 | -0.0921 | -0.041 | -0.117 | -0.124 | 0.001 | -0.0584 |

Reference: the supplement of paper PMC11061612
